Experimental data taken from PMC9157728, “Albumin Binder–Conjugated Fibroblast Activation Protein Inhibitor Radiopharmaceuticals for Cancer Therapy” (Journal of Nuclear Medicine, 2022).

Key:
[1] = system: pancreatic cancer PDX tumors; experiment: SPECT imaging in pancreatic cancer PDX-bearing mice; type: in vivo; settings: for tumor uptake at 6 d after injection (SPECT imaging and biodistribution): 6 d after the injection; for tumor-to-nontargeted-tissue signal ratios on SPECT: PDX tumor models, until 144 h after injection
Protocol: SPECT scans were performed on a Mediso nanoSPECT/CT imaging system. ^177Lu-TEFAPI-06 or ^177Lu-TEFAPI-07 SPECT imaging was performed on pancreatic cancer PDX–bearing mice at the indicated time points after intravenous injection of 37 MBq of ^177Lu-TEFAPI-06 or ^177Lu-TEFAPI-07, respectively.

[2] = system: pancreatic cancer PDX tumors; experiment: Radiotherapy study in pancreatic cancer PDX-bearing mice (tumor growth); type: in vivo; settings: 1.85 MBq or 3.7 MBq, vs saline or 3.7 MBq ^177Lu-FAPI-04
Protocol: (§1) ^68Ga-FAPI-04 PET imaging was performed to evaluate the tumor volume, and the mice were treated when their average tumor volume reached 35 mm^3. The PDX-bearing mice (6 groups, 7–9 mice per group) were treated by saline, 3.7 MBq of ^177Lu-FAPI-04, 1.85 MBq of ^177Lu-TEFAPI-06, 3.7 MBq of ^177Lu-TEFAPI-06, 1.85 MBq of ^177Lu-TEFAPI-07, or […] of ^177Lu-TEFAPI-07. Tumor volume and body weight were monitored every 2 or 3 d, and the animals were euthanized when the tumor volume exceeded 1,000 mm^3. Histopathologic staining was performed with an antihuman FAP monoclonal antibody (ab207178; Abcam), and hematoxylin and eosin staining was performed as previously described ([29]).

[3] = Stability in vitro in saline and human serum (radio-HPLC); type: in vitro ADME; settings: 7 d
Protocol: The radiolabeling of ^68Ga, ^86Y, and ^177Lu was performed by incubation with 50 nmol of precursor at pH 4.5–5.0 at 90°C for 10 min. The product was purified by C18 column extraction, and the radiochemical purity was determined by high-performance liquid chromatography equipped with a radioactivity detector. The stability of ^177Lu-TEFAPI-06 and ^177Lu-TEFAPI-07 in saline and human serum was monitored from 2 to 168 h using radio–high-performance liquid chromatography ([13]). More details about the radiochemistry, the quality control testing, and the stability assay can be found in the supplemental materials (section 3).

[4] = Ex vivo biodistribution study in PDX-bearing mice
Protocol: PDX-bearing mice were injected with 925.0 kBq of ^177Lu-TEFAPI-06 or ^177Lu-TEFAPI-07 for an ex vivo biodistribution study. The mice were killed at 24 h and 96 h after injection, the counts of the different organs were measured with a γ-counter, and the data were normalized to percentage injected dose (%ID)/g using 1% of total counts.

[5] = Radiotherapy study: body weight and hematoxylin and eosin staining of main organs; type: in vivo; settings: pancreatic cancer PDX-bearing mice after treatment
Protocol: as §1

| SMILES | tumor uptake at 6 d after injection (SPECT imaging and biodistribution) [1] | tumor-to-nontargeted-tissue signal ratios on SPECT [1] | tumor growth after treatment [2] | radiochemistry purity after incubation in human serum [3] | radiochemistry purity after incubation in saline [3] | Blood uptake ([4]; 24 h after injection) [%ID/g] | Bone uptake ([4]; 24 h after injection) [%ID/g] | Brain uptake ([4]; 24 h after injection) [%ID/g] | Fat uptake ([4]; 24 h after injection) [%ID/g] | Heart uptake ([4]; 24 h after injection) [%ID/g] | Kidney uptake ([4]; 24 h after injection) [%ID/g] | Large intestine uptake ([4]; 24 h after injection) [%ID/g] | Liver uptake ([4]; 24 h after injection) [%ID/g] | Lung uptake ([4]; 24 h after injection) [%ID/g] | Muscle uptake ([4]; 24 h after injection) [%ID/g] | Pancreas uptake ([4]; 24 h after injection) [%ID/g] | Small intestine uptake ([4]; 24 h after injection) [%ID/g] | Spleen uptake ([4]; 24 h after injection) [%ID/g] | Stomach uptake ([4]; 24 h after injection) [%ID/g] | Tumor uptake ([4]; 24 h after injection) [%ID/g] | also measured |
| --- | --- | --- | --- | --- | --- | --- | --- | --- | --- | --- | --- | --- | --- | --- | --- | --- | --- | --- | --- | --- | --- |
| N#C[C@@H]1CC(F)(F)CN1C(=O)CNC(=O)c1ccnc2ccc(OCCCN3CCN(C(=O)[C@H](CCCCNC(=O)CN4CCN(CC(=O)[O-])CCN(CC(=O)[O-])CCN(CC(=O)[O-])CC4)NC(=O)CCCC(=O)N[C@@H](CCCCNC(=O)CCCc4ccc(I)cc4)C(=O)O)CC3)cc12.[177Lu+3] [^177Lu-TEFAPI-06] | still notable | high | remarkable suppression of tumor growth | over 90% | over 90% | 12.32 | 1.32 | 0.37 | 1.86 | 3.70 | 3.20 | 1.66 | 2.98 | 4.33 | 1.09 | 2.01 | 2.55 | 3.00 | 1.75 | 8.68 | tumor-to-liver ratio ([4]; 24 h after injection): 2.91; Blood uptake ([4]; 96 h after injection): 2.25 %ID/g; Bone uptake ([4]; 96 h after injection): 0.35 %ID/g; Brain uptake ([4]; 96 h after injection): 0.09 %ID/g; Fat uptake ([4]; 96 h after injection): 1.55 %ID/g; Heart uptake ([4]; 96 h after injection): 1.51 %ID/g; Kidney uptake ([4]; 96 h after injection): 2.66 %ID/g; Large intestine uptake ([4]; 96 h after injection): 0.53 %ID/g; Liver uptake ([4]; 96 h after injection): 1.74 %ID/g; Lung uptake ([4]; 96 h after injection): 1.95 %ID/g; Muscle uptake ([4]; 96 h after injection): 0.45 %ID/g; Pancreas uptake ([4]; 96 h after injection): 0.75 %ID/g; Small intestine uptake ([4]; 96 h after injection): 0.61 %ID/g; Spleen uptake ([4]; 96 h after injection): 3.66 %ID/g; Stomach uptake ([4]; 96 h after injection): 0.54 %ID/g; Tumor uptake ([4]; 96 h after injection): 7.33 %ID/g; tumor-to-liver ratio ([4]; 96 h after injection): 4.21; side effects, hematoxylin and eosin staining of the main organs [5]: almost negligible |
| Cc1cc(-c2ccc(NC(=O)CCCC(=O)N[C@@H](CCCCNC(=O)CN3CCN(CC(=O)[O-])CCN(CC(=O)[O-])CCN(CC(=O)[O-])CC3)C(=O)N3CCN(CCCOc4ccc5nccc(C(=O)NCC(=O)N6CC(F)(F)C[C@H]6C#N)c5c4)CC3)c(C)c2)ccc1N=Nc1ccc2c(S(=O)(=O)O)cc(S(=O)(=O)O)c(N)c2c1O.[177Lu+3] [^177Lu-TEFAPI-07] | still notable | high | remarkable suppression of tumor growth | over 90% | over 90% | 5.64 | 1.71 | 0.23 | 1.82 | 2.53 | 8.67 | 1.15 | 3.21 | 2.58 | 1.00 | 2.16 | 1.19 | 2.69 | 1.20 | 7.87 | tumor-to-liver ratio ([4]; 24 h after injection): 2.45; Blood uptake ([4]; 96 h after injection): 0.51 %ID/g; Bone uptake ([4]; 96 h after injection): 0.18 %ID/g; Fat uptake ([4]; 96 h after injection): 0.48 %ID/g; Heart uptake ([4]; 96 h after injection): 0.62 %ID/g; Kidney uptake ([4]; 96 h after injection): 10.16 %ID/g; Large intestine uptake ([4]; 96 h after injection): 0.10 %ID/g; Liver uptake ([4]; 96 h after injection): 2.31 %ID/g; Lung uptake ([4]; 96 h after injection): 0.73 %ID/g; Muscle uptake ([4]; 96 h after injection): 0.28 %ID/g; Pancreas uptake ([4]; 96 h after injection): 0.53 %ID/g; Small intestine uptake ([4]; 96 h after injection): 0.16 %ID/g; Spleen uptake ([4]; 96 h after injection): 1.88 %ID/g; Stomach uptake ([4]; 96 h after injection): 0.29 %ID/g; Tumor uptake ([4]; 96 h after injection): 7.57 %ID/g; tumor-to-liver ratio ([4]; 96 h after injection): 3.28; side effects, hematoxylin and eosin staining of the main organs [5]: almost negligible |
